Assay results: patent US20240360177A1, “PEPTIDES WITH ANTIMICROBIAL ACTIVITIES” (priority 2021, published 2024)
≈ marks a conversion by molar mass, not a printed value. Read-outs that look alike come from different tables or passages of the source. Starred links: 1 amine or outer side, 2 acyl side, 3 side chain; linkers in the order of their positions; H or OH if unused. Non-standard residues stand in square brackets, D forms with d. Residues, ends and D or L forms follow the SMILES beside them. NH(CH2)9CO = O=C(CCCCCCCCCN[*:1])[*:2]; Aoc = NCCCCCCCC(=O)O; βAla = NCCC(=O)O

Key:
C. albicans = conditions: 24 h
C. glabrata = conditions: 24 h
C. parapsilosis = conditions: 24 h
C. krusei = conditions: 24 h
C. auris = conditions: 24 h
C. tropicalis = conditions: 24 h
C. dubliniensis = conditions: 24 h
C. neoformans = conditions: 72 h
C. gattii = conditions: 72 h
Coccidioides species = conditions: N = 3 strains; 48-72 hrs; >50% inhibition
in vitro = conditions: human
[1] = Acute toxicity in CD-1 mice; conditions: both sexes, mouse, in vivo
Experimental: Acute toxicity and subacute toxicity of ACPs were tested in CD-1 mice. In the acute toxicity study, groups of CD-1 male or female mice were administered single intravenous or intraperitoneal escalating doses (n=2-3 per dose) of the peptides dissolved in normal saline for injection or in phosphate buffered saline. The intravenous dose was administered via tail vein with a slow push over 15-20 seconds. Doses were escalated based on tolerability.

[2] = test system: Staphylococcus aureus ATCC 29213; type: cell-based
[3] = test system: Escherichia coli ATCC 25922; type: cell-based
[4] = test system: Pseudomonas aeruginosa ATCC 27853; type: cell-based
[5] = EC50 cytotoxicity in HepG2, intracellular ATP assay
[6] = single IP dose, read-out: Tolerated single intraperitoneal dose
[7] = single IV dose via tail vein, read-out: Tolerated single intravenous dose

Compound	MIC C. albicans (C. albicans)	MIC C. glabrata (C. glabrata)	MIC C. parapsilosis (C. parapsilosis)	MIC C. krusei (C. krusei)	MIC C. auris (C. auris)	MIC C. tropicalis (C. tropicalis)	MIC C. dubliniensis (C. dubliniensis)	MIC C. neoformans (C. neoformans)	MIC C. gattii (C. gattii)	MIC Range Coccidioides species (Coccidioides species)	MIC Range Fusarium spp. (Fusarium spp.; 48 h)	MIC Range Scedosporium spp. (Scedosporium spp.; 72 h)	MIC Range Lomentospora prolificans (Lomentospora prolificans)	MIC Range Rhizopus arrhizus (Rhizopus arrhizus; 24 h)	MIC Range Paecilomyces variotii (Paecilomyces variotii; 48 h)	EC50 (in vitro; [5])	MTD [1, 6]	MTD [1, 7]	other results
CC[C@@H]([C@H](C)O)n1ncn(-c2ccc(N3CCN(c4ccc(OC[C@@H]5CO[C@@](Cn6cncn6)(c6ccc(F)cc6F)C5)cc4)CC3)cc2)c1=O [POS, posaconazole, reference compound]	–	–	–	–	–	–	–	–	–	–	–	–	–	–	–	–	–	–	MIC Range Rhizopus arrhizus (Rhizopus arrhizus; N = 3 strains, 24 hrs): 0.12 to 0.25 µg/mL; MIC Range Paecilomyces variotii (Paecilomyces variotii; N = 1 strain, 48 hrs): ≤0.03 µg/mL
N=C(N)NCCC[C@@H](N)C(=O)N[C@@H](CCCNC(=N)N)C(=O)N[C@H](CCCNC(=N)N)C(=O)NCC(=O)N[C@H](CCCNC(=N)N)C(=O)N[C@@H](CCCNC(=N)N)C(=O)N[C@H](CCCNC(=N)N)C(=O)NCC(=O)N[C@H](CCCNC(=N)N)C(=O)N[C@@H](CCCNC(=N)N)C(=O)N[C@H](CCCNC(=N)N)C(=O)N[C@@H](CCCNC(=N)N)C(=O)NCC(=O)N[C@H](CCCNC(=N)N)C(=O)N[C@@H](CCCNC(=N)N)C(=O)N[C@H](CCCNC(=N)N)C(=O)N[C@@H](CCCNC(=N)N)C(=O)O [SEQ ID NO: 3, rRr-G-rRr-G-rRrR-G-rRrR] (H-[dR]R[dR]G[dR]R[dR]G[dR]R[dR]RG[dR]R[dR]R-OH)	0.5 µg/mL (≈ 0.21 µM)	0.25 µg/mL (≈ 0.105 µM)	0.25 µg/mL (≈ 0.105 µM)	1 µg/mL (≈ 0.421 µM)	4 µg/mL (≈ 1.68 µM)	0.25 µg/mL (≈ 0.105 µM)	0.25 µg/mL (≈ 0.105 µM)	0.5 µg/mL (≈ 0.21 µM)	0.5 µg/mL (≈ 0.21 µM)	0.25 to 0.5 µg/mL	0.12 to 0.5 µg/mL	≤0.12 µg/mL	≤0.12 µg/mL	1 to 8 µg/mL	0.25 µg/mL (≈ 0.105 µM)	> 300 µg/mL	–	–	MIC50 against Candida spp. (Candida spp.): 0.5 µg/mL (≈ 0.21 µM); MIC90 against Candida spp. (Candida spp.): 4 µg/mL (≈ 1.68 µM); EC50 (in vitro; EC50 cytotoxicity in HepG2 cells (50% cell viability)): > 300 µg/mL
N=C(N)NCCC[C@@H](N)C(=O)N[C@@H](CCCNC(=N)N)C(=O)N[C@H](CCCNC(=N)N)C(=O)NCC(=O)N[C@H](CCCNC(=N)N)C(=O)N[C@@H](CCCNC(=N)N)C(=O)N[C@H](CCCNC(=N)N)C(=O)NCC(=O)N[C@H](CCCNC(=N)N)C(=O)N[C@@H](CCCNC(=N)N)C(=O)N[C@H](CCCNC(=N)N)C(=O)N[C@@H](CCCNC(=N)N)C(=O)NCC(=O)N[C@H](CCCNC(=N)N)C(=O)N[C@@H](CCCNC(=N)N)C(=O)N[C@H](CCCNC(=N)N)C(=O)N[C@@H](CCCNC(=N)N)C(N)=O [SEQ ID NO: 4, rRr-G-rRr-G-rRrR-G-rRrR-NH2] (H-[dR]R[dR]G[dR]R[dR]G[dR]R[dR]RG[dR]R[dR]R-NH2)	0.5 µg/mL (≈ 0.211 µM)	0.25 µg/mL (≈ 0.105 µM)	0.25 µg/mL (≈ 0.105 µM)	0.5 µg/mL (≈ 0.211 µM)	8 µg/mL (≈ 3.37 µM)	0.25 µg/mL (≈ 0.105 µM)	0.25 µg/mL (≈ 0.105 µM)	0.25 µg/mL (≈ 0.105 µM)	0.5 µg/mL (≈ 0.211 µM)	0.25 to 0.5 µg/mL	0.06 to 8 µg/mL	≤0.12 µg/mL	≤0.12 µg/mL	0.5 to 8 µg/mL	0.25 µg/mL (≈ 0.105 µM)	> 300 µg/mL	–	–	–
N=C(N)NCCC[C@@H](N)C(=O)N[C@H](CCCNC(=N)N)C(=O)N[C@H](CCCNC(=N)N)C(=O)NCCC(=O)N[C@H](CCCNC(=N)N)C(=O)N[C@H](CCCNC(=N)N)C(=O)N[C@H](CCCNC(=N)N)C(=O)NCCC(=O)N[C@H](CCCNC(=N)N)C(=O)N[C@H](CCCNC(=N)N)C(=O)N[C@H](CCCNC(=N)N)C(=O)N[C@H](CCCNC(=N)N)C(=O)NCCC(=O)N[C@H](CCCNC(=N)N)C(=O)N[C@H](CCCNC(=N)N)C(=O)N[C@H](CCCNC(=N)N)C(=O)N[C@H](CCCNC(=N)N)C(N)=O [SEQ ID NO: 14, rrr-(Apr)-rrr-(Apr)-rrrr-(Apr)-rrrr-NH2] (H-[dR][dR][dR][βAla][dR][dR][dR][βAla][dR][dR][dR][dR][βAla][dR][dR][dR][dR]-NH2)	1 µg/mL (≈ 0.414 µM)	0.5 µg/mL (≈ 0.207 µM)	0.12 µg/mL (≈ 0.0497 µM)	0.5 µg/mL (≈ 0.207 µM)	0.5 µg/mL (≈ 0.207 µM)	0.25 µg/mL (≈ 0.103 µM)	0.5 µg/mL (≈ 0.207 µM)	0.5 µg/mL (≈ 0.207 µM)	0.25 µg/mL (≈ 0.103 µM)	–	0.12 to 0.25 µg/mL	0.25 µg/mL (≈ 0.103 µM)	–	–	–	> 300 µg/mL	10 to 15 mg/kg	5 to 7.5 mg/kg	MIC50 Candida species (Candida spp.): 0.5 µg/mL (≈ 0.207 µM); MIC90 Candida species (Candida spp.): 2 µg/mL (≈ 0.828 µM)
N=C(N)NCCC[C@@H](N)C(=O)N[C@@H](CCCNC(=N)N)C(=O)N[C@H](CCCNC(=N)N)C(=O)NCCC(=O)N[C@H](CCCNC(=N)N)C(=O)N[C@@H](CCCNC(=N)N)C(=O)N[C@H](CCCNC(=N)N)C(=O)NCCC(=O)N[C@H](CCCNC(=N)N)C(=O)N[C@@H](CCCNC(=N)N)C(=O)N[C@H](CCCNC(=N)N)C(=O)N[C@@H](CCCNC(=N)N)C(=O)NCCC(=O)N[C@H](CCCNC(=N)N)C(=O)N[C@@H](CCCNC(=N)N)C(=O)N[C@H](CCCNC(=N)N)C(=O)N[C@@H](CCCNC(=N)N)C(=O)NCCCCCCCC(=O)O [SEQ ID NO: 16, rRr-(Apr)-rRr-(Apr)-rRrR-(Apr)-rRrR-(Aoa)] (H-[dR]R[dR][βAla][dR]R[dR][βAla][dR]R[dR]R[βAla][dR]R[dR]R[Aoc]-OH)	1 µg/mL (≈ 0.391 µM)	0.5 µg/mL (≈ 0.195 µM)	0.5 µg/mL (≈ 0.195 µM)	0.5 µg/mL (≈ 0.195 µM)	0.5 µg/mL (≈ 0.195 µM)	0.5 µg/mL (≈ 0.195 µM)	0.5 µg/mL (≈ 0.195 µM)	0.5 µg/mL (≈ 0.195 µM)	0.25 µg/mL (≈ 0.0977 µM)	0.5 µg/mL (≈ 0.195 µM)	0.25 to 1 µg/mL	–	0.25 µg/mL (≈ 0.0977 µM)	2 to 64 µg/mL	0.25 µg/mL (≈ 0.0977 µM)	> 300 µg/mL	10 to 15 mg/kg	5 to 7.5 mg/kg	–
N=C(N)NCCC[C@@H](N)C(=O)N[C@@H](CCCNC(=N)N)C(=O)N[C@H](CCCNC(=N)N)C(=O)NCCC(=O)N[C@H](CCCNC(=N)N)C(=O)N[C@@H](CCCNC(=N)N)C(=O)N[C@H](CCCNC(=N)N)C(=O)NCCC(=O)N[C@H](CCCNC(=N)N)C(=O)N[C@@H](CCCNC(=N)N)C(=O)N[C@H](CCCNC(=N)N)C(=O)N[C@@H](CCCNC(=N)N)C(=O)NCCC(=O)O [SEQ ID NO: 17, rRr-(Apr)-rRr-(Apr)-rRrR-(Apr)] (H-[dR]R[dR][βAla][dR]R[dR][βAla][dR]R[dR]R[βAla]-OH)	4 µg/mL (≈ 2.23 µM)	>64 µg/mL	2 µg/mL (≈ 1.12 µM)	1 µg/mL (≈ 0.558 µM)	>64 µg/mL	4 µg/mL (≈ 2.23 µM)	8 µg/mL (≈ 4.46 µM)	64 µg/mL (≈ 35.7 µM)	8 µg/mL (≈ 4.46 µM)	–	16 to 64 µg/mL	–	–	–	–	> 300 µg/mL	–	–	MIC Staphylococcus aureus [2]: >64 µg/mL; MIC Escherichia coli [3]: >64 µg/mL; MIC Pseudomonas aeruginosa [4]: >64 µg/mL
N=C(N)NCCC[C@@H](N)C(=O)N[C@@H](CCCNC(=N)N)C(=O)N[C@H](CCCNC(=N)N)C(=O)NCCCCCCCCCC(=O)N[C@H](CCCNC(=N)N)C(=O)N[C@@H](CCCNC(=N)N)C(=O)N[C@H](CCCNC(=N)N)C(=O)NCCCCCCCC(=O)N[C@H](CCCNC(=N)N)C(=O)N[C@@H](CCCNC(=N)N)C(=O)N[C@H](CCCNC(=N)N)C(=O)N[C@@H](CCCNC(=N)N)C(=O)NCCCCCCCC(=O)N[C@H](CCCNC(=N)N)C(=O)N[C@@H](CCCNC(=N)N)C(=O)N[C@H](CCCNC(=N)N)C(=O)N[C@@H](CCCNC(=N)N)C(N)=O [SEQ ID NO: 33, rRr-(Ada)-rRr-(Aoa)-rRrR-(Aoa)-rRrR-NH2] (H-[dR]R[dR][NH(CH2)9CO][dR]R[dR][Aoc][dR]R[dR]R[Aoc][dR]R[dR]R-NH2)	1 µg/mL (≈ 0.377 µM)	0.5 µg/mL (≈ 0.188 µM)	0.5 µg/mL (≈ 0.188 µM)	0.5 µg/mL (≈ 0.188 µM)	0.5 µg/mL (≈ 0.188 µM)	0.5 µg/mL (≈ 0.188 µM)	0.25 µg/mL (≈ 0.0941 µM)	0.25 µg/mL (≈ 0.0941 µM)	0.5 µg/mL (≈ 0.188 µM)	–	0.25 to 0.5 µg/mL	0.25 µg/mL (≈ 0.0941 µM)	–	–	–	> 300 µg/mL	10 to 15 mg/kg	5 to 7.5 mg/kg	MIC Staphylococcus aureus [2]: 16 µg/mL (≈ 6.03 µM); MIC Escherichia coli [3]: 16 µg/mL (≈ 6.03 µM); MIC Pseudomonas aeruginosa [4]: 32 µg/mL (≈ 12.1 µM)
C[C@@H](c1ncncc1F)[C@](O)(Cn1cncn1)c1ccc(F)cc1F [VOR, voriconazole, reference compound]	–	–	–	–	–	–	–	–	–	–	–	–	–	–	–	–	–	–	MIC Range Fusarium spp. (Fusarium spp.; N = 3 strains, 48 hrs): 4 to 16 µg/mL; MIC Range Scedosporium spp. (Scedosporium spp.; N = 2 strains, 72 hrs): 1 to 2 µg/mL; MIC Range Lomentospora prolificans (Lomentospora prolificans; N = 1 strain): 16 µg/mL (≈ 45.8 µM); MIC Range Paecilomyces variotii (Paecilomyces variotii; N = 1 strain, 48 hrs): 0.12 µg/mL (≈ 0.344 µM)
